Experimental data reported in US20210230131A1, “POLYAMINO BIARYL COMPOUNDS AND THEIR USE” (INSERM (INSTITUT NATIONAL DE LA SANTÉ ET DE LA RECHERCHE …, priority 2018, published 2021).

Legend:
[1] = Stability of aqueous drinking solutions; assay type: physicochemical
Method: Thy-Tau22 transgenic colonies (C57Bl/6J genetic background) were obtained by crossing heterozygous males C57Bl/6J with WT females. All animals were housed in a pathogen-free facility at 5 to 6 animals per cage (Techniplast Cages 1284L), with ad libitum access to food and water in a 12/12-hour light-dark cycle and maintained under a constant temperature of 22° C. For treatment, animals were randomly distributed and compound 30 or 31 was provided in the drinking water at a final concentration of 1 mg/kg, ie […] for drinking solutions taking into account an average weight of 25 g/mouse drinking 4 mL/day. […] Food consumption and bodyweight were also assessed. In WT animals, a pilot study of drug treatment was performed for one month to establish the innocuousness of compound 30 and 31 treatments. Thy-Tau22 females were treated for 1 months, starting at 6 months of age.

Aβ1-42 peptide secretion = test: Quantification of secreted Aβ1-42 by ELISA in SY5Y-APP695WT cells; assay type: cell-based; conditions: Homo sapiens; concentration inhibiting 50% of Aβ1-42 peptide secretion in SY5Y cells; 24 h treatment; mean ± SD of at least two experiments in triplicate
Method: Cell culture and treatment. The human neuroblastoma cell line […] was maintained in Dulbecco's modified Eagle medium (DMEM, high glucose, pyruvate-GIBCO by Life Technologies) supplemented with 10% foetal bovine serum, 2 mM L-glutamine, 1 mM non-essential amino acids and penicillin/streptomycin (GIBCO by Life Technologies) at 37° C. in a 5% CO2 humidified incubator. […] cells were maintained in 75 cm^2 culture flasks (Falcon) with supplemented DMEM medium until they reached 80% of confluence 24 h before treatment. For compounds treatment, a 10 mM stock solution was diluted in freshly supplemented DMEM medium to obtain the precise final concentration of drug. Bafilomycin A1 (BafA1), the vacuolar […] type H+ ATPase inhibitor, was purchased from Merck Millipore and was used at a final dilution of 100 nM. For drug treatment, cells were plated at a rate of 5·10^5 cells per well into 12-well plates (Falcon) and cultured with 1 mL supplemented DMEM cell medium for 24 h before drug exposure. The following day, cell medium was replaced with fresh medium containing drugs diluted at the indicated concentrations. Cells were treated for 24 h. At the end of treatments, the cell medium was collected and kept at -80° C. until use for dosage. Then, cells were rinsed once with PBS and extracted in 100 μL of Laemmli buffer (10 mM Tris, 20% glycerol and 2% Sodium dodecyl sulfate) using a cell-scraper. The cell lysate was further sonicated (30 pulses of 0.5 s, 60 Hz) for 5 min. Total protein concentration was determined using the Pierce BCA Protein Assay Kit (Thermo scientific) according to the manufacturer's instructions. Samples were stored at -80° C. until analysis. Quantification of secreted Aβ1-40/1-42 and sAPPα/sAPPβ. Conditioned media of […] collected at the end of treatments were centrifuged at 1000 g for 5 min to eliminate cells debris. Aβ1-40 and Aβ1-42 peptide concentrations in […] were determined using amyloid-beta 40 and 42 Human ELISA kits (Invitrogen) according to the manufacturer's instructions after 1:10 and 1:2 dilutions of supernatants in ELISA buffer, respectively. sAPPα and sAPPβ concentrations in ng/mL were determined using the sAPPα/sAPPβ kit (Meso Scale Diagnostics, MSD®) according to the manufacturer's instructions. Compounds of the invention (compounds 24-37, 41, 44 and 51-58) were evaluated for their ability to modulate APP processing on SY5Y human neuroblastoma cell line stably expressing the neuronal isoform of human wild-type APP695 (SYSY-APPwt). Aβ levels (Aβ1-40 and Aβ1-42) after treatment with reference and tested compounds were measured by ELISA (Table 2). […] APP carboxy-terminal fragments (αCTFs and AICD) were measured by Western blot and quantified. The effect of reference and tested compounds on αCTFs and AICD are expressed as the intensity of corresponding western-blot bands resulting from the secretase cleavages.

Row | stability of aqueous solutions [1] | IC50 (Aβ1-42 peptide secretion) [µM] | Structure (SMILES)
1 | stable during more than one week | 3.4 ± 1.9 | CN(C)Cc1ccccc1-c1ccc(NCCCN2CCCCC2)c(OCCN2CCCCC2)c1 [Compound 30, 4-(2-[(Dimethylamino)methyl]phenyl)-2-[2-(piperidin-1-yl)ethoxy]-N-[3-(piperidin-1-yl)propyl]aniline]
2 | stable during more than one week | 2.8 ± 0.1 | CN(C)Cc1ccccc1-c1ccc(NCCCN2CCCCC2)c(OCCC2CCCCC2)c1 [Compound 31, 3-(2-cyclohexylethoxy)-2′-((dimethylamino)methyl)-N-(3-(piperidin-1-yl)propyl)-[1,1′-biphenyl]-4-amine]
